From patent publication US8012971B2, “Therapeutic agent for chronic obstructive pulmonary disease” (Dainippon Sumitomo Pharma Co., Ltd., priority 2005, dated 2011)

Experiments:
Format in all cases: in vivo
[1] = tested on: Guinea Pig Chronic Obstructive Pulmonary Disease (COPD) Model; assay: Inflammatory cells in bronchoalveolar fluid in guinea pig COPD model; details: 10 mg/kg/day oral; mean ± SEM of 8 animals
Experimental: (§1) An evaluation was carried out as follows according to a report of Kosuke MORIZUMI, Junichi FUCHIGAMI et al., 2002, The 75th Annual Meeting of the Japanese Pharmacological Society (2002) Abstract No. P-259, “Study of a chronic obstructive pulmonary disease-Effects of theophylline on respiratory function and lung function of guinea pigs in an exposure of cigarette smoke.”
(§2) Male Hartley strain guinea pigs (purchased from Japan SLC, Inc.) were taken in a cigarette exposure holder (RMH-TUBES, manufactured by Muenster Ltd.) to secure them to an exposure chamber (Flow-past type nose-only inhalation chamber, manufactured by Muenster Ltd.), and allowed to inhale cigarette smoke (Hi-Lite, manufactured by Japan Tobacco Inc.) for 60 minutes per day for 5 days in a week, totally 4 weeks using a smoking exposure equipment (Hamburg II, manufactured by Borgwaldt Technik), while the exposure was carried out for 4 days in the 4th week. • (2) Drug Administrations
(§3) Each 0.5% MC suspension of a test drug was orally administered daily in 5 ml/weight (kg) once a day for 25 days from the first day of the exposure. To a sham-exposure group and a control group was orally administered a 0.5% MC suspension in a similar manner. Any oral administrations were carried out 0.5 to 1 hours before exposures on a cigarette-smoke-exposure day or after measurements when measuring respiratory functions. A drug was not administered on the day for measurement of respiratory functions after finishing the 4th week of the exposure. • (3) Measurements of Airway Resistance
After measuring lung functions, animals were exsanguinated to death and opened the thorax, ligated the left bronchial bifurcation, and then injected saline (2.5 mL) into the right lung and aspirated the same via fixed cannula on measuring lung functions repeatedly in twice (totally 5 mL), and the recovery solution was obtained as a bronchoalveolar lavage fluid (BALF). BALF was centrifuged (230×g, 4° C., for 10 minutes) to give cell pellets. The pellets were suspended in saline (0.5 mL), and to a part of the suspension was added Turk solution (manufactured by Wako Pure Chemical Industries, Ltd.) so as to dilute 10 to 20 folds. Leukocyte numbers per 0.1 μL were measured by a blood cell counting chamber and leukocyte numbers per 1 μL were calculated. Cell suspensions were prepared again, smears were prepared using about 2000 to 3000 total cell numbers, May-Grunwald-Giemsa stain was carried out, leukocyte numbers were counted under the microscope, a ratio of each leukocyte number to total leukocyte number was obtained, and each cell number per 1 μL was calculated based on the ratio. Results are shown in each cell number per 1 μL.

[2] = tested on: Guinea Pig Chronic Obstructive Pulmonary Disease (COPD) Model; assay: Histological investigations of lung in guinea pig COPD model; details: 10 mg/kg/day for 25 days; 8 animals
Experimental: as §1, §2, §3
After collection of BALF, trachea and lung were isolated. The ligation site of the left lung was opened, injected neutral formalin buffer into trachea, bronchi and lung at the pressure of 20 cm H2O via cannula fixed on the side of the lung, and the lung tissue was extended to be fixed. According to a conventional method, tissue section samples were produced using posterior lobe of the left lung and hematoxylin-eosin (HE) stain was carried out. Any other lung tissues were stored in neutral formalin buffers. Drug efficacies of the produced tissue samples were evaluated by scoring tissue changes under the microscope. The criteria of scores were shown as follows: −: none, ±: minimal, +: mild, ++: moderate, +++: severe. Each quantification was calculated as 0, 1, 2, 3, 4.

[3] = tested on: Guinea Pig Chronic Obstructive Pulmonary Disease (COPD) Model; assay: Lung functions (FRC, RV) in guinea pig COPD model; details: 10 mg/kg/day oral; after 4th week of exposure; mean ± SEM of 8 animals
Experimental: as §1, §2, §3
After measuring airway resistances in the 4th week, animals were cut open their tracheas under urethane-anesthetizing ([…], i.p.), cannulated on the side of lung, fixed by ligation, and measured residual volumes (RV) and functional residual capacities (FRC) by lung functions measuring system (Biosystem for maneuver, manufactured by Buxco Electronics).

[4] = tested on: Guinea Pig Chronic Obstructive Pulmonary Disease (COPD) Model; assay: Airway resistance (sRaw) in guinea pig COPD model (cigarette smoke exposure); details: 10 mg/kg/day oral; 1 week of cigarette smoke exposure; mean ± SEM of 8 animals
Experimental: as §1, §2, §3
Specific airway resistances (sRaw) in guinea pigs were measured during awakening by double-flow plethysmography using general respiratory function analysis system (PULMOS-I, manufactured by M•I•P•S Corp.). Measurements were carried out before the exposure and on the day after finishing the 1st, 2nd, 3rd and 4th weeks of the exposure. Each 100 breathings of respiratory functions were individually measured, and the average values were obtained as measured values. A rate of change of airway resistances was calculated by the following equation. Rate of change of each measured week (%)=100×(a measured value on each measured date−a measured value before starting exposures of cigarette smoke)/a measured value before starting exposures of cigarette smoke

Cn1c(=O)c2[nH]cnc2n(C)c1=O [theophylline, Theophylline, reference compound]
Cell number in BALF, Macrophage [1]: 2068 ± 362 cells/μL | Cell number in BALF, Neutrophil [1]: 1072 ± 322 ^NS cells/μL | Cell number in BALF, Total [1]: 3578 ± 583 cells/μL | Number of animals with grade + (mild): A. Hyperplasia, epithelial cell, bronchus [2]: 0 | Number of animals with grade + (mild): B. Cellular exudation, neutrophil/eosinophil, lumen, bronchiole [2]: 0 | Number of animals with grade + (mild): C. Thickening, alveolar wall [2]: 1 | Number of animals with grade + (mild): D. Accumulation, foamy/macrophage-like cell, alveolus [2]: 1 | Number of animals with grade + (mild): E. Cellular infiltration, neutrophil, alveolus [2]: 0 | Number of animals with grade ++ (moderate): A. Hyperplasia, epithelial cell, bronchus [2]: 0 | Number of animals with grade ++ (moderate): B. Cellular exudation, neutrophil/eosinophil, lumen, bronchiole [2]: 0 | Number of animals with grade ++ (moderate): C. Thickening, alveolar wall [2]: 0 | Number of animals with grade ++ (moderate): D. Accumulation, foamy/macrophage-like cell, alveolus [2]: 0 | Number of animals with grade ++ (moderate): E. Cellular infiltration, neutrophil, alveolus [2]: 0 | Number of animals with grade +++ (severe): A. Hyperplasia, epithelial cell, bronchus [2]: 0 | Number of animals with grade +++ (severe): B. Cellular exudation, neutrophil/eosinophil, lumen, bronchiole [2]: 0 | Number of animals with grade +++ (severe): C. Thickening, alveolar wall [2]: 0 | Number of animals with grade +++ (severe): D. Accumulation, foamy/macrophage-like cell, alveolus [2]: 0 | Number of animals with grade +++ (severe): E. Cellular infiltration, neutrophil, alveolus [2]: 0 | Number of animals with grade ± (minimal): A. Hyperplasia, epithelial cell, bronchus [2]: 1 | Number of animals with grade ± (minimal): B. Cellular exudation, neutrophil/eosinophil, lumen, bronchiole [2]: 0 | Number of animals with grade ± (minimal): C. Thickening, alveolar wall [2]: 0 | Number of animals with grade ± (minimal): D. Accumulation, foamy/macrophage-like cell, alveolus [2]: 1 | Number of animals with grade ± (minimal): E. Cellular infiltration, neutrophil, alveolus [2]: 1 | Number of animals with grade − (none): A. Hyperplasia, epithelial cell, bronchus [2]: 7 | Number of animals with grade − (none): B. Cellular exudation, neutrophil/eosinophil, lumen, bronchiole [2]: 8 | Number of animals with grade − (none): C. Thickening, alveolar wall [2]: 7 | Number of animals with grade − (none): D. Accumulation, foamy/macrophage-like cell, alveolus [2]: 6 | Number of animals with grade − (none): E. Cellular infiltration, neutrophil, alveolus [2]: 7 | Functional residual capacity (FRC) [3]: 6.916 ± 0.234 mL | Residual volume (RV) [3]: 1.962 ± 0.417 mL | Specific airway resistance (sRaw) % increase from pre value [4]: 15.02 ± 6.73%
